Measured values reported in a melting point compilation (Tetko et al.).
Peptide text beside a SMILES is read from it.

| melting point [°C] | Compound |
| --- | --- |
| 80 to 85 | Cc1ccc(CS(=O)(=O)Cl)cc1 |
| 45 to 47 | COc1ccc(Oc2ccc(C(F)(F)F)cc2[N+](=O)[O-])cc1 |
| 160 to 163 | CC(=O)Nc1ccc(Br)cc1C |
| 107 to 109 | CCCCc1ccc(NC(C)=O)cc1 |
| 134 | O=C1C(c2ccccc2)C(c2ccccc2)N1c1ccccc1 (stereo not drawn) |
| 168 to 169 | O=C(C=Cc1ccc(-c2ccccc2[N+](=O)[O-])o1)c1ccco1 |
| 116 | O=C1C=C(NCCCc2ccccc2)C(=O)c2ccccc21 |
| 63 to 65 | O=[N+]([O-])c1cccnc1Oc1ccc(F)cc1F |
| 155 to 161 | CS(=O)(=O)c1ccc(C=O)cc1 |
| 249 | CC(=O)Nc1cccc2c1ccc1nc(-c3ccccc3)c(-c3ccccc3)nc12 |
| 114 | CC(C)(C)c1cc(C(C)(C)c2ccc(O)c(C(C)(C)C)c2)ccc1O |
| 166 | Cc1ccc(-c2ccc(C=C3C(=O)OC(C)(C)OC3=O)o2)cc1 |
| 252 | Cc1c(Cl)cc(-c2ccc(=O)[nH]n2)cc1Cl |
| 46 | O=C(c1ccccc1)c1ccccc1Cl |
| 134 | COc1ccc2cc([N+](=O)[O-])ccc2c1 |
| 137 to 138 | CC1(C)OC(C)(C(O)(Cc2ccccc2)Cc2ccccc2)CCC1C(=O)O (stereo not drawn) |
| 93 | Cc1cccc(N(C)C(=S)Oc2ccc3c(c2)C2CCC3C2)c1 (stereo not drawn) |
| 271 | O=C1OC(c2ccccc2)=N/C1=C\c1ccc(/C=C2/N=C(c3ccccc3)OC2=O)cc1 |
| 110 | COc1cc(C(=O)c2ccc(C)cc2)c([N+](=O)[O-])cc1OC |
| 239 to 242 | c1cc2c3c(cccc3c1)-c1nc3ccccc3nc1-2 |

More lines, now with the values behind:

| Compound | melting point [°C] |
| --- | --- |
| O=C(O)C1(C(=O)O)CCC1 | 157 to 161 |
| CC(C)(C)CC(=O)OCC(=O)C1(O)CCC2C3CCC4=CC(=O)CCC4(C)C3C(O)CC21C (stereo not drawn) | 168 |
| ClCC1CCN(c2ncnc3ccsc23)CC1 | 99 to 100 |
| CC(C)(C)OC(=O)NCC1CCNCC1 | 106 to 108 |
| N#Cc1c(N2CCCC2)cc(Cl)nc1N1CCCC1 | 132 to 140 |
| CCOC(=O)c1cc(Cl)c(O)c(Cl)c1 | 111 |
| Cc1cc(Br)cnc1F | 62 |
| CCOC(=O)C(C#N)=C(S)Nc1ccccc1 | 118 to 119 |
| CC1C(=O)C23C(O)CC4C(C)(C)CCC(O)C4(C)C2C(O)CC1C3O (stereo not drawn) | 282 |
| CC(C)CC(C)(O)C#CC(C)(O)CC(C)C (stereo not drawn) | 42 to 44 |
| O=C1CCCC2C3CCCN4CCCC(CN12)C34 (stereo not drawn) | 76 |
| CC(=O)OC(/C=C/c1ccccc1)=NNC(N)=O | 174 |
| CC(=O)C1CCC2C3CC=C4CC(O)CCC4(C)C3CCC12C (stereo not drawn) | 193 |
| CNC(=O)C(=NOC)c1ccccc1Oc1ccccc1 | 88 |
| Brc1sc(Br)c2c1OCCO2 | 98 |
| O=[N+]([O-])c1cc(Br)cc(Br)c1O | 118 to 119 |
| COC(=O)C1(S(=O)(=O)c2ccc(Cl)cc2)CCC1 | 76.2 |
| CS(=O)(=O)OCCC(=O)N1CCN(C(=O)CCOS(C)(=O)=O)CC1 | 175 |
| CC(=O)NC(C)=O | 79 |
| CC(C)(C)OC(=O)N[C@H]1CCCNC1 | 125 |
| NS(=O)(=O)c1ccc(Cl)s1 | 117 |
| O=C1C2CC(CN3CCCCC23)C2CCCCN12 (stereo not drawn) | 111 |
| CC(=O)NC(CCC(=O)O)C(=O)O (stereo not drawn) | 199 |
| O=C(O)c1cc(F)ccc1C(F)(F)F | 82 |
| N[C@@H](CC(=O)O)C(=O)N[C@@H](Cc1ccccc1)C(=O)O (H-Asp-Phe-OH) | 236 to 239 |
| Clc1c(Br)c(Br)c2c(c1Br)Oc1c(Br)c(Br)c(Cl)c(Br)c1O2 | 385 |
| CC12CCC(C(=O)C(Br)(Br)C1=O)C2(C)C (stereo not drawn) | 155 |
| C=CC(=O)Oc1c(Br)cc(Cl)c2cccnc12 | 100 |
